Values quoted from earlier work as cited in US9029390B2, “Oral composition containing an antiplatelet agent of the thienopyridine family in the form of free base” (CLL Pharma, priority 2008, dated 2015).

Columns and labels:
[1] = patients who received clopidogrel, study CAPRIE

Question: Which solubility in water does the source give for COC(=O)[C@H](c1ccccc1Cl)N1CCc2sccc2C1 [clopidogrel free base, clopidogrel] here?
Answer: almost null

Question: Which “frequency of gastro-intestinal bleedings” value [1] does the source give for COC(=O)[C@H](c1ccccc1Cl)N1CCc2sccc2C1 [clopidogrel] here?
Answer: 2.0%

Question: What about the “gastro-intestinal bleedings having required a hospitalization” value [1] of the same compound?
Answer: 0.7%
